≈ marks a conversion by molar mass, not a printed value. Where two headings read alike, the source gives them in different places.
Experiments:
Ab ATCC 19606 (strain I) = test: MIC determination (double dilution, Mueller-Hinton broth); format: cell-based, Acinetobacter baumannii; settings: for MIC: Acinetobacter baumannii, ATCC19606
[1] = tested on: Ab ATCC BAA1605 (strain J, multidrug-resistant); test: MIC determination; format: cell-based; settings: Acinetobacter baumannii
Method in brief: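 Broth double-dilution MIC in Mueller-Hinton broth, 96-well plates, at least in duplicate. Inoculum: colonies grown overnight at 37 °C on MH plates, suspended to OD600 ~0.5 and diluted 1:1000 into serially doubly diluted compound.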

[2] = tested on: Ab strain #279 (CDC and FDA AR Bank); test: MIC determination; format: cell-based; settings: Acinetobacter baumannii; Ab AR Bank #279
Procedure: (§1) All bacterial strains listed above were stored at −80° C. All strains were streaked on Mueller-Hinton (MH) plates and allowed to grow at 37° C. overnight. Enough colonies were scraped from the plate and suspended in MH broth with vortexing to reach an attenuance at 600 nm (OD600) of ˜0.5. The resulting culture was diluted 1:1000 and added to the prepared serially doubly diluted compound solutions in 96-well plates. For M. smegmatis, a 1:100 dilution of the bacteria was done in MH. All MIC values were determined using 96-well plates with low evaporation seals at least in duplicate. For each row, one well was reserved for sterile control (which consisted of 200 μL of MH medium) and another well was reserved for growth control (which consisted of 100 μL of MH medium seeded with 100 μL of bacterial culture).
(§2) Then all 46 compounds were tested against a broad panel of all 41 Ab strains from the CDC and FDA Antibiotic Resistance (AR) Isolate Bank (Table 2; data shown for 2 representative compounds), which were all highly multidrug-resistant strains, including those resistant to colistin. […] The activity of the monohydrazides was not dependent on the extent (number of resistance mutations) or severity (antibiotic MIC) of resistance. All conclusions made from Table 1 remained valid for all compounds against these 41 additional Ab strains. […] This mechanism of action will be elucidated in the proposed studies.

[3] = tested on: Ab strain #282 (CDC and FDA AR Bank); test: MIC determination; format: cell-based; settings: Acinetobacter baumannii; Ab AR Bank #282
Procedure: as §1, §2

[4] = tested on: Ab strain #284 (CDC and FDA AR Bank); test: MIC determination; format: cell-based; settings: Acinetobacter baumannii; Ab AR Bank #284
Procedure: as §1, §2

[5] = tested on: Ab strain #289 (CDC and FDA AR Bank); test: MIC determination; format: cell-based; settings: Acinetobacter baumannii; Ab AR Bank #289
Procedure: as §1, §2

[6] = tested on: Ab strain #295 (CDC and FDA AR Bank); test: MIC determination; format: cell-based; settings: Acinetobacter baumannii; Ab AR Bank #295
Procedure: as §1, §2

[7] = tested on: Ab strain #296 (CDC and FDA AR Bank); test: MIC determination; format: cell-based; settings: Acinetobacter baumannii; Ab AR Bank #296
Procedure: as §1, §2

[8] = tested on: Ab strain #297 (CDC and FDA AR Bank); test: MIC determination; format: cell-based; settings: Acinetobacter baumannii; Ab AR Bank #297
Procedure: as §1, §2

[9] = tested on: Ab strain #300 (CDC and FDA AR Bank); test: MIC determination; format: cell-based; settings: Acinetobacter baumannii; Ab AR Bank #300
Procedure: as §1, §2

[10] = tested on: Ab strain #301 (CDC and FDA AR Bank); test: MIC determination; format: cell-based; settings: Acinetobacter baumannii; Ab AR Bank #301
Procedure: as §1, §2

[11] = tested on: Ab strain #302 (CDC and FDA AR Bank); test: MIC determination; format: cell-based; settings: Acinetobacter baumannii; Ab AR Bank #302
Procedure: as §1, §2

[12] = tested on: Ab strain #305 (CDC and FDA AR Bank); test: MIC determination; format: cell-based; settings: Acinetobacter baumannii; Ab AR Bank #305
Procedure: as §1, §2

[13] = tested on: Ab strain #306 (CDC and FDA AR Bank); test: MIC determination; format: cell-based; settings: Acinetobacter baumannii; Ab AR Bank #306
Procedure: as §1, §2

[14] = tested on: Ab strain #307 (CDC and FDA AR Bank); test: MIC determination; format: cell-based; settings: Acinetobacter baumannii; Ab AR Bank #307
Procedure: as §1, §2

[15] = tested on: Ab strain #311 (CDC and FDA AR Bank); test: MIC determination; format: cell-based; settings: Acinetobacter baumannii; Ab AR Bank #311
Procedure: as §1, §2

[16] = tested on: all 43 strains of A. baumannii (41 CDC strains and 2 ATCC strains); test: MIC value statistics for all A. baumannii strains; format: cell-based, Acinetobacter baumannii; settings: of 43 A. baumannii strains
Method in brief: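 Broth microdilution in MH broth against CDC AR Isolate Bank and ATCC strains. Inoculum from overnight MH plates (37 °C), suspended to OD600 ~0.5, then diluted 1:1000 into serial twofold compound dilutions. Sterile and growth controls included per row.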

[17] = Table 1, control strain, read-out: MIC Ab ATCC 19606
[18] = Table 1, multidrug-resistant strain, read-out: MIC Ab ATCC BAA 1605

Row | SMILES | MIC (Ab ATCC 19606 (strain I); [17]) [µg/mL] | MIC [1, 18] [µg/mL] | MIC [2] [µg/mL] | MIC [3] [µg/mL] | MIC [4] [µg/mL] | MIC [5] [µg/mL] | MIC [6] [µg/mL] | MIC [7] [µg/mL] | MIC [8] [µg/mL] | MIC [9] [µg/mL] | MIC [10] [µg/mL] | MIC [11] [µg/mL] | MIC [12] [µg/mL] | MIC [13] [µg/mL] | MIC [14] [µg/mL] | MIC [15] [µg/mL] | number of compound/strain combinations with MIC value 0.25 μg/mL [16] | number of compound/strain combinations with MIC value 0.5 μg/mL [16] | number of compound/strain combinations with MIC value 1 μg/mL [16] | number of compound/strain combinations with MIC value ≤0.125 μg/mL [16] | further results
1 | O=C(NNc1ccc(Cl)cc1)c1ccc(F)cn1 [Compound 3e] | 1 (≈ 3.76 µM) | 0.0625 (≈ 0.235 µM) | 0.25 (≈ 0.941 µM) | 0.25 (≈ 0.941 µM) | 0.25 (≈ 0.941 µM) | 0.25 (≈ 0.941 µM) | 0.06 (≈ 0.226 µM) | 0.06 (≈ 0.226 µM) | 0.25 (≈ 0.941 µM) | 0.25 (≈ 0.941 µM) | 0.25 (≈ 0.941 µM) | 0.13 (≈ 0.489 µM) | 0.5 (≈ 1.88 µM) | 0.13 (≈ 0.489 µM) | 0.5 (≈ 1.88 µM) | 0.5 (≈ 1.88 µM) | 16 | 10 | 1 | 16 | MIC (Ab ATCC 19606 (strain I); Table 5, Mueller-Hinton medium, I = A. baumannii ATCC 19606, read-out: MIC strain I): 1 µg/mL (≈ 3.76 µM); MIC under conditions used to generate biofilm (Ab ATCC 19606 (strain I); trypticase soy broth (TSB) medium): 0.5 µg/mL (≈ 1.88 µM); MIC ([1]; Table 5, Mueller-Hinton medium, J = A. baumannii BAA1605, read-out: MIC strain J): ≤ 0.125 µg/mL
2 | O=C(NNc1cccc(F)c1)c1cnccn1 [Compound 9a] | 0.5 (≈ 2.15 µM) | 0.5 (≈ 2.15 µM) | 1 (≈ 4.31 µM) | 1 (≈ 4.31 µM) | 0.5 (≈ 2.15 µM) | 0.5 (≈ 2.15 µM) | ≤ 0.13 | ≤ 0.13 | 0.5 (≈ 2.15 µM) | 0.25 (≈ 1.08 µM) | 0.25 (≈ 1.08 µM) | 0.25 (≈ 1.08 µM) | 0.5 (≈ 2.15 µM) | 0.5 (≈ 2.15 µM) | 0.5 (≈ 2.15 µM) | 0.5 (≈ 2.15 µM) | 11 | 18 | 10 | 4 | –
